Tests used:
[1] = system: polyvalent resistant (CH strain) houseflies; test: whole plant or invertebrate; format: in vivo, housefly (CH strain); settings: CH strain
[2] = system: IN/WHO strain house flies; test: topical application test, percent kill after 24 hours, IN/WHO strain; format: in vivo, house fly (susceptible IN/WHO strain)
In short: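 Susceptible female IN/WHO house flies, 3–5 days old, CO2-anesthetized, received synergist plus insecticide in acetone (1.0 μL) on the thorax; doses in μg/fly. Flies held 10 per dish, 3–5 dishes/treatment, with skim milk; mortality (percent kill) read at 24 h.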

mice = test: synergism of acute toxicity of Dimetilan, GS 13005, Secobarbital and Methadone (intraperitoneal); format: in vivo, Swiss albino white male mice; settings: for number of mice dead: 48 hours, of eight mice
In short: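 Male Swiss albino mice (5–6 weeks, 23–27 g), eight per dose; synergist in corn oil given i.p. 1 h before i.p. insecticide or drug (drugs in distilled water). Lethality recorded over at least 6 h; controls received corn oil plus agent alone.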

[3] = Dimetilan 2 + synergist 4 μg/fly
[4] = GS 13005 1 + synergist 2 μg/fly
[5] = GS 13798 1 + synergist 2 μg/fly
[6] = Pyrethrum 2 + synergist 4 μg/fly
[7] = Mobam 0.10 + synergist 0.50 μg/fly
[8] = Dimetilan 8 mg/kg + synergist 80 mg/kg ip
[9] = Dimetilan 8 mg/kg + synergist 240 mg/kg ip
[10] = Diazinon 0.03 + synergist 0.15 μg/fly
[11] = Mobam 0.20 + synergist 1 μg/fly
[12] = Diazinon 5 + synergist 10 μg/fly
[13] = Mobam 0.05 + synergist 0.25 μg/fly
[14] = Mobam 0.50 μg/fly, synergist/insecticide 5/1
[15] = Mobam 1.0 μg/fly, synergist/insecticide 1/1
[16] = Mobam 1.0 μg/fly, synergist/insecticide 2/1
[17] = Mobam 1.0 μg/fly, synergist/insecticide 5/1
[18] = GS 13005 71 mg/kg + synergist 213 mg/kg
[19] = Methadone 32 mg/kg + synergist 215 mg/kg
[20] = Secobarbital 90 mg/kg + synergist 215 mg/kg

SMILES	percent kill after 24 hours [1, 3] [%]	percent kill after 24 hours [1, 4] [%]	percent kill after 24 hours [1, 5] [%]	percent kill after 24 hours [1, 6] [%]	percent kill after 24 hours [2, 7] [%]	number of mice dead (mice; [8])	number of mice dead (mice; [9])	percent kill after 24 hours [2, 10] [%]	percent kill after 24 hours [2, 11] [%]	percent kill after 24 hours [1, 12] [%]	further results
C#CCON=C(C)c1ccc(Cl)cc1 [I-D]	100	100	100	67	20	1	6				
C#CCON=C(C)c1ccc2ccccc2c1 [I-F]	100	100	95	35		0	4	24	47		percent kill after 24 hours ([2]; GS 13005 0.10 + synergist 0.50 μg/fly): 45%
C#CCON=Cc1ccc(Cl)cc1Cl [I-G]		100		47			0				percent kill after 24 hours ([2]; Diazinon 0.02 + synergist 0.10 μg/fly): 40%
C#CCOCc1ccc(Cl)c(Cl)c1 [II-C]	100	75	92	50	27		0	25		95	percent kill after 24 hours [2, 13]: 4%
C#CCOCc1ccc(Cl)c(Cl)c1Cl [II-D]	100	95	100	30			0	40	100	60	percent mortality 24 hours ([2]; Mobam 0.13 μg/fly, synergist/insecticide 1/1): 17%; percent mortality 24 hours ([2]; Mobam 0.25 μg/fly, synergist/insecticide 0.5/1): 30%; percent mortality 24 hours ([2]; Mobam 0.50 μg/fly, synergist/insecticide 1/1): 100%; percent mortality 24 hours [2, 14]: 100%; percent mortality 24 hours [2, 15]: 100%; percent mortality 24 hours [2, 16]: 100%; percent mortality 24 hours [2, 17]: 100%; percent kill after 24 hours [2, 13]: 10%; mice lethality (number dead) (mice; [18]): 3; mice lethality (number dead) (mice; [19]): 2; mice lethality (number dead) (mice; [20]): 1
C#CCOCc1c(Cl)ccc(Cl)c1Cl [II-E]	100	100	100	78	33		0		100	65	percent mortality 24 hours [2, 14]: 100%; percent mortality 24 hours ([2]; Mobam 1.0 μg/fly, synergist/insecticide 0.5/1): 100%; percent mortality 24 hours [2, 15]: 100%; percent mortality 24 hours [2, 16]: 100%; percent mortality 24 hours [2, 17]: 100%; percent kill after 24 hours ([2]; synergist alone 1 μg/fly): 0%
C#CCOCc1c(Cl)cccc1[N+](=O)[O-] [II-K]						0	6				24 hour percent mortality ([2]; Bidrin 0.063 μg/fly with five parts synergist): 0%; 24 hour percent mortality ([2]; Pyrolan 0.13 μg/fly with five parts synergist): 40%; mice lethality (number dead) (mice; [18]): 3; mice lethality (number dead) (mice; [19]): 2; mice lethality (number dead) (mice; [20]): 1
